# Experimental data: patent US8759481B2, “Peptide vaccines for cancers expressing tumor-associated antigens” (Oncotherapy Science, Inc., priority 2007, dated 2014)
# “Also recorded” adds a separate entry of the source. Ends that are not written are not given here.
# Key:
# Type in all cases: cell-based, human
# [1] = tested on: peptide-pulsed A24-LCL cells; assay: IFN-gamma ELISPOT assay (positive wells); settings: HLA-A24 peptides; as compared to the control
# Method in brief: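 PBMC-derived DCs from HLA-A*2402 and/or A*0201 donors, pulsed with 20 micro g/ml peptide plus 3 micro g/ml beta 2-microglobulin, stimulated autologous CD8+ T cells three times (days 0, 7, 14). On day 21, responders were tested against peptide-pulsed A24-LCL or T2 cells by IFN-gamma ELISPOT. Values are reported as positive wells/wells tested; CTL lines confirmed by ELISA.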
# [2] = tested on: peptide-pulsed A24-LCL cells; assay: CTL line establishment, IFN-gamma ELISA; settings: HLA-A24 peptides; vs target without peptide pulse
# Method in brief: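 CTL lines were expanded with MMC-inactivated B-lymphoblastoid feeders, 40 ng/ml anti-CD3 and IL-2 in AIM-V/5% AS. IFN-gamma ELISPOT identified specific wells, and ELISA determined established lines, using responders stimulated by peptide-pulsed A24-LCL or T2 cells at 1×10^4/well.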
# [3] = tested on: 293T transfected with full length INHBB gene and HLA-A*2402; assay: Specific CTL activity against transfected target cells; settings: CTL line or clone raised by the peptide, vs control transfectants
# Description: (§1) Briefly, peptide-pulsed A24-LCL or T2 cell (1×10^4/well) was prepared as stimulator cells. Cultured Cells in 48 wells or CTL clones after limiting dilution were used as responder cells. IFN-gamma ELISPOT assay and ELISA assay were performed under manufacture procedure.
# (§2) The cDNA encoding an open reading frame of target genes or HLA-A02 or HLA-A24 was amplified by PCR. The PCR-amplified product was cloned into pcDNA3.1 myc-His vector (Invitrogen). The plasmids were transfected into the target cells, HLA-A02 and HLA-A24-null normal human cell line COS7 or 293T using lipofectamine (Invitrogen) according to the manufacturer's recommended procedures. Alternatively, the plasmid contained the target genes were transfected into A24-LCL by electroporation using GenePulserII (Biorad). Briefly, 2.5×10^6 A24-LCL cells were pulsed with 10 mcg prasmid at 140V and 1000 micro F. After 2 days from transfection, the transfected cells were treated with Cell dissociation solution and used as the target cells for CTL activity assay.
# The established CTL line raised against these peptides were examined for their ability to recognize the target cells expressing INHBB and HLA-A*2402.
# [4] = tested on: peptide-pulsed A24-LCL cells; assay: CTL clones by limiting dilution, specific CTL activity; settings: HLA-A24 peptides; vs target without peptide pulse
# Description: (§3) The dilutions were made to have 0.3, 1, and 3 CTLs/well in 96 round-bottomed micro titer plate (Nalge Nunc International). CTLs were cultured with 7×10^4 cells/well of 2 kinds of human B-lymphoblastoid cell lines, 30 ng/ml of anti-CD3 antibody, and 125 U/ml of IL-2 in total of 150 micro 1/well of AIM-V containing 5% AS. 50 micro 1/well of IL-2 was added to the medium 10 days later so that IL-2 became 125 U/ml in the final concentration. CTL activity of CTLs was tested on the 14th day, and CTL clones were expanded using the same method above.
# as §1
# [5] = tested on: peptide-pulsed T2 cells; assay: IFN-gamma ELISPOT assay (positive wells); settings: HLA-A02 peptides; as compared to the control
# Method in brief: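 CD8+ T cells from HLA-A*2402 and/or HLA-A*0201 donors were stimulated 1:20 with autologous monocyte-derived DCs pulsed with 20 µg/ml peptide plus β2-microglobulin, in IL-7, with IL-2 added, restimulated on days 7 and 14. On day 21, IFN-γ ELISPOT against peptide-pulsed T2 or A24-LCL cells (1×10^4/well) scored wells as positive, with CTL lines confirmed by ELISA.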
# [6] = tested on: peptide-pulsed T2 cells; assay: CTL line establishment, IFN-gamma ELISA; settings: HLA-A02 peptides; vs target without peptide pulse
# Description: CTLs were expanded in culture using the method similar to that described by Riddell S R, et al., (Walter E A et al., (1995) N Engl J Med 333:1038-44; Riddel S R, et al., (1996) Nature Med. 2:216-23.). A total 5×10^4 of CTLs were resuspended in 25 ml of AIM-V/5% AS with 2 kinds of human B-lymphoblastoid cell lines, inactivated by MMC, in the presence of 40 ng/ml of anti-CD3 monoclonal antibody (Pharmingen). One day after initiating the cultures, 120 IU/ml of IL-2 were added to the cultures. The cultures were fed with fresh AIM-V/5% AS containing 30 IU/ml of IL-2 on days 5, 8 and 11.
# as §1
# Positive well number indicates the number of wells where specific IFN-gamma production can be detected by IFN-gamma ELISPOT assay. 4 to 8 wells can be prepared from one donor. This is shown as (positive wells number/the number of whole wells tested by IFN-gamma ELISPOT assay). Positive CTL line indicates the number of CTL line established from positive wells. The generation of CTL line is determined by ELISA. This is shown as (established CTL line number/the number of positive wells tested by IFN-gamma ELISPOT assay). No positive donor is not defined by no detectable positive wells, but by no established CTL line. […] No data at positive donor number, positive well number and positive CTL line indicating “−” means that the peptides can't be synthesized for any reason.
# CTLs were expanded in culture using the method similar to the one described by Riddell et al. (Walter E A et al., N Engl J Med 1995 Oct. 19, 333(16): 1038-44; Riddell S R et al., Nat Med 1996 Feb., 2(2): 216-23). A total of 5×10^4 CTLs were suspended in 25 ml of AIM-V/5% AS medium with 2 kinds of human B-lymphoblastoid cell lines, inactivated by MMC, in the presence of 40 ng/ml of anti-CD3 monoclonal antibody (Pharmingen). One day after initiating the cultures, 120 IU/ml of IL-2 were added to the cultures. The cultures were fed with fresh AIM-V/5% AS medium containing 30 IU/ml of IL-2 on days 5, 8 and 11 (Tanaka H et al., Br J Cancer 2001 Jan. 5, 84(1): 94-9; Umano Y et al., Br J Cancer 2001 Apr. 20, 84(8): 1052-7; Uchida N et al., Clin Cancer Res 2004 Dec. 15, 10(24): 8577-86; Suda T et al., Cancer Sci 2006 May, 97(5): 411-9; Watanabe T et al., Cancer Sci 2005 August, 96(8): 498-506).
# Specifically, peptide-pulsed T2 (1×10^4/well) was prepared as stimulator cells. Cultured cells in 48 wells were used as responder cells. IFN-gamma ELISPOT assay and IFN-gamma ELISA assay were performed under manufacture procedure.
# [7] = tested on: peptide-pulsed T2 cells; assay: CTL clones by limiting dilution, specific CTL activity; settings: HLA-A02 peptides; vs target without peptide pulse
# Description: as §3, §1
# [8] = tested on: COS7 transfected with full length TTK gene and HLA-A*0201; assay: Specific CTL activity against transfected target cells; settings: vs control transfectants
# Description: as §1, §2
# The established CTL clone raised against these peptides were examined for their ability to recognize the target cells endogenously expressing TTK and HLA-A*0201. […] COS7 transfected with full length TTK but HLA-A*0201, COS7 transfected HLA-A*0201 but not full length of TTK (or replaced full length HIG2 gene) and COS7 transfected with HLA-A*0201 and pulsed with different target epitope peptide, were prepared as controls.
# [9] = tested on: COS7 transfected with full length CDH3 gene and HLA-A*2402; assay: as above; settings: CTL clones raised by the peptide, vs single transfectants
# Description: as §1, §2
# The established CTL line raised against these peptides were examined for their ability to recognize the target cells expressing CDH3 and HLA-A*2402. […] COS7 transfected with full length CDH3 but not HLA-A*2402 and COS7 transfected with HLA-A*2402 but not full length CDH3 were prepared as controls.
Substance,IFN-gamma production by IFN-gamma ELISPOT assay [1],"Establishment of CTL line, specific CTL activity against the peptide-pulsed target determined by ELISA [2]",CTL activities of CTL clones against the peptide-pulsed target [4],IFN-gamma production by IFN-gamma ELISPOT assay [5],"Establishment of CTL line, specific CTL activity against the peptide-pulsed target determined by ELISA [6]",CTL activities of CTL clones against the peptide-pulsed target [7],other results
SEQ ID NO: 137: HLA-A*2402 binding 10-mer peptide derived from INHBB (RALGAACLLL),potent IFN-gamma production,CTL lines were established,,,,,Specific CTL activity against 293T transfected with both INHBB and HLA-A24 ([3]; listed as INHBB-A24-10-7): highest specific CTL activity
SEQ ID NO: 133: HLA-A*2402 binding 10-mer peptide derived from INHBB (LYLKLLPYVL),potent IFN-gamma production,CTL lines were established,,,,,Specific CTL activity against 293T transfected with both INHBB and HLA-A24 ([3]; listed as INHBB-A24-10-180): highest specific CTL activity; also recorded: high specific CTL activity
SEQ ID NO: 135: HLA-A*2402 binding 10-mer peptide derived from INHBB (RQQFFIDFRL),potent IFN-gamma production,CTL lines were established,potent and specific CTL activities,,,,Specific CTL activity against 293T transfected with both INHBB and HLA-A24 ([3]; listed as INHBB-A24-10-305): highest specific CTL activity; also recorded: high specific CTL activity
SEQ ID NO: 228: HLA-A*0201 binding 9-mer peptide derived from TTK (KQIYAIKYV),,,,potent IFN-gamma production,CTL line and clones were established,potent and specific CTL activities,Specific CTL activity against COS7 transfected with both TTK and HLA-A02 ([8]; listed as TTK-A02-9-547): highest specific CTL activity
SEQ ID NO: 227: HLA-A*0201 binding 9-mer peptide derived from TTK (YMSCFRTPV),,,,potent IFN-gamma production,specific response,potent and specific CTL activities,Specific CTL activity against COS7 transfected with both TTK and HLA-A02 ([8]; listed as TTK-A02-9-462): high specific CTL activity; Specific CTL activity against COS7 transfected with both TTK and HLA-A02 ([8]; listed as TTK-A2-9-462): highest specific CTL activity
SEQ ID NO: 233: HLA-A*0201 binding 9-mer peptide derived from TTK (SLGCILYYM),,,,potent IFN-gamma production,CTL line and clones were established,potent and specific CTL activities,Specific CTL activity against COS7 transfected with both TTK and HLA-A02 ([8]; listed as TTK-A02-9-719): high specific CTL activity; Specific CTL activity against COS7 transfected with both TTK and HLA-A02 ([8]; listed as TTK-A2-9-719): highest specific CTL activity
DYLNeWGSRF (DYLNEWGSRF; not fully specified; printed as DYLNeWGSRF) [SEQ ID NO: 30],potent IFN-gamma production,CTL lines were established,potent and specific CTL activities,,,,Specific CTL activity against COS7 transfected with both CDH3 and HLA-A24 ([9]; listed as CDH3-A24-10-807): highest specific CTL activity; also recorded: high specific CTL activity
FILPvLGAVL (FILPVLGAVL; not fully specified; printed as FILPvLGAVL) [SEQ ID NO: 344],potent IFN-gamma production,CTL lines were established,potent and specific CTL activities,,,,Specific CTL activity against COS7 transfected with both CDH3 and HLA-A24 ([9]; listed as CDH3-A24-10-655): highest specific CTL activity; also recorded: high specific CTL activity
